Values of other authors, collected in paper PMC7922564, “Molecular Insights into an Antibiotic Enhancer Action of New Morpholine-Containing 5-Arylideneimidazolones in the Fight against MDR Bacteria” (International Journal of Molecular Sciences, 2021).

Experiments:
[1] = tested on: K. aerogenes Ea-294, Ea-308; design: method as in earlier work; settings: doxycycline, chloramphenicol, norfloxacin, already published, cited from earlier work
[2] = tested on: K. aerogenes Ea-289; design: method as in earlier work; settings: doxycycline, chloramphenicol, norfloxacin, already published, cited from earlier work

In the case of `NC1=N/C(=C\c2cccc(Oc3ccccc3)c2)C(=O)N1CCCN1CCOCC1` [Compound 16], the MIC reduction ([1]; erythromycin + compound) is listed as “No effect”, the “A (activity gain)” value ([1]; erythromycin) is listed as 1 and the MIC reduction ([2]; erythromycin + compound) is listed as “No effect”. For the same compound, the “A (activity gain)” value ([2]; erythromycin) was 1.
